How the values were obtained:
[1] = test system: DIGSA; experiment: Pre-emergence herbicidal activity on DIGSA (large crabgrass); assay type: in vivo, Digitaria sanguinalis
Outline: (§1)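 Seeds sown on sterilized fertilized topsoil and covered, then compound in organic solvent diluted with 50:50 acetone/water applied to soil surface; greenhouse at 30/21° C. day/night with 0.64 cm overhead irrigation. Percent inhibition versus untreated plants scored about 14 days after treatment; GR80 derived, highest rate typically 1000 g/ha.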

[2] = test system: SORVU; experiment: Pre-emergence herbicidal activity on SORVU (shattercane); assay type: in vivo, Sorghum vulgare; details: racemic mixture vs enantiomers test; rates tested 1000, 650, 300, 200, 100, 65, 30 and 10 g/ha; lowest rate with 80% or greater inhibition
Outline: as §1

[3] = test system: SETFA; experiment: Pre-emergence herbicidal activity on SETFA (giant foxtail); assay type: in vivo, Setaria faberi
Outline: as §1

[4] = test system: corn (maize); experiment: Field trials, crop selectivity in corn; assay type: in vivo; details: pre-emergence rates giving acceptable weed control
[5] = test system: POROL; experiment: Pre-emergence herbicidal activity on POROL (common purslane); assay type: in vivo, Portulaca oleracea
Outline: as §1

[6] = test system: rice; details: field trials; pre-emergence
[7] = test system: monocotyledonous species; experiment: Pre-emergence test (later test), GR80 on monocotyledonous species; assay type: in vivo; details: average over monocotyledonous species
From the text: (§2) All such uses, and the biological activity enabling such uses, are embraced by the term “herbicidal” herein. Tables 15 and 16 summarize results of tests conducted as described below to determine the pre-emergence herbicidal activity, in the form of a GR80 value, of illustrative compounds of this invention. […] Where herbicidal activity was evident but 80% inhibition was not achieved at the highest rate tested (typically 1000 g/ha), an asterisk (*) is shown in the following tables. Herbicidal activity evident in the form of symptoms of phytotoxicity, in the absence of at least 80% inhibition at any rate, is indicated in the tables by “phyto”. A blank cell in the following tables indicates no herbicidal or phytotoxic response at any rate tested.
(§3) The pre-emergence tests were conducted by the following procedure. Topsoil was sieved to pass through a 1.27 cm screen. Fertilizer was added to the topsoil and the mixture was then sterilized by heating. The topsoil mixture was placed in a pot and compacted to a depth of 1.0 to 1.25 cm from the top of the pot. Seeds of each of several monocotyledonous and dicotyledonous annual plant species were placed on top of the soil. […]
(§4) Approximately 14 days after planting and treating, the plants were observed and herbicidal efficacy recorded as percent inhibition by comparison with untreated plants. […]

[8] = test system: ABUTH; experiment: Pre-emergence herbicidal activity on ABUTH (velvetleaf); assay type: in vivo, Abutilon theophrasti
Outline: as §1

[9] = test system: dicotyledonous species; experiment: Pre-emergence test (later test), average GR80 on dicotyledonous species; assay type: in vivo; details: average over dicotyledonous species
From the text: as §2, §3, §4

[10] = test system: cotton; details: field trials; pre-emergence
[11] = test system: monocotyledonous and dicotyledonous annual plant species; experiment: Greenhouse pre-emergence test, all species of the test taken together; assay type: in vivo
From the text: All such uses, and the biological activity enabling such uses, are embraced by the term “herbicidal” herein. […] Where herbicidal activity was evident but 80% inhibition was not achieved at the highest rate tested (typically 1000 g/ha), an asterisk (*) is shown in the following tables. Herbicidal activity evident in the form of symptoms of phytotoxicity, in the absence of at least 80% inhibition at any rate, is indicated in the tables by “phyto”. A blank cell in the following tables indicates no herbicidal or phytotoxic response at any rate tested.
The pre-emergence tests were conducted by the following procedure. Topsoil was sieved to pass through a 1.27 cm screen. Fertilizer was added to the topsoil and the mixture was then sterilized by heating. The topsoil mixture was placed in a pot and compacted to a depth of 1.0 to 1.25 cm from the top of the pot. Seeds of each of several monocotyledonous and dicotyledonous annual plant species were placed on top of the soil. Additional soil was subsequently placed over the seeds to level-fill the pot. A known amount of each test compound dissolved or suspended in an appropriate organic solvent was diluted with a 50:50 mix of acetone and water and applied to the surface of the soil. After treatment the plants were placed in a greenhouse with a 30/21° C. day/night temperature regime where they received 0.64 cm of overhead irrigation. All subsequent watering consisted of a light overhead mist and/or subirrigation as needed for germination and growth.
Pre-emergence herbicidal activity of the compound of Example 5, a racemic mixture of R- and S-enantiomers of N,N′-(1,2-propanediylbis)-3-(trifluoromethyl) benzamide, was compared with that of the individual R- and S-enantiomers, the compounds of Examples 5a and 5b respectively. The procedure was exactly as described above. Rates tested were 1000, 650, 300, 200, 100, 65, 30 and 10 g/ha.
In a greenhouse pre-emergence test conducted according to the procedure described hereinabove, R—N,N′-(1,2-propanediylbis)-3-(trifluoromethyl)benzamide (the compound of Example 5a) was applied at 200 g/ha and acetochlor was applied at 100 g/ha, both individually and in combination.
In the same greenhouse pre-emergence test, R-2-fluoro-3-trifluoromethyl-N-[1-methyl-2-(3-trifluoromethyl)phenylcarbonylamino]ethylbenzamide (the compound of Example 13) was applied at 100 g/ha and acetochlor was applied at 100 g/ha, both individually and in combination.

[12] = test system: CIRAR; experiment: Pre-emergence herbicidal activity on CIRAR (canada thistle, seedling); assay type: in vivo, Cirsium arvense
Outline: as §1

[13] = test system: SORHA; experiment: Pre-emergence herbicidal activity on SORHA (johnsongrass, seedling); assay type: in vivo, Sorghum halepense
Outline: as §1

[14] = test system: BRAPP; experiment: Pre-emergence herbicidal activity on BRAPP (broadleaf signalgrass); assay type: in vivo, Brachiaria platyphylla
Outline: as §1

[15] = test system: CHEAL; experiment: Pre-emergence herbicidal activity on CHEAL (common lambsquarters); assay type: in vivo, Chenopodium album
Outline: as §1

[16] = test system: AMARE; experiment: Pre-emergence herbicidal activity on AMARE (redroot pigweed); assay type: in vivo, Amaranthus retroflexus
Outline: as §1

[17] = test system: PANMI; experiment: Pre-emergence herbicidal activity on PANMI (wild proso millet); assay type: in vivo, Panicum miliaceum
Outline: as §1

[18] = test system: several weed species, predominantly dicotyledonous species; experiment: Field trials, pre-emergence weed control; assay type: in vivo; details: pre-emergence application
[19] = test system: ECHCG; experiment: Pre-emergence herbicidal activity on ECHCG (barnyardgrass); assay type: in vivo, Echinochloa crus-galli; details: racemic mixture vs enantiomers test; rates tested 1000, 650, 300, 200, 100, 65, 30 and 10 g/ha; lowest rate with 80% or greater inhibition
Outline: as §1

[20] = test system: SOLNI; experiment: Pre-emergence herbicidal activity on SOLNI (black nightshade); assay type: in vivo, Solanum nigrum
Outline: as §1

[21] = test system: PANDI; experiment: Pre-emergence herbicidal activity on PANDI (fall panicum); assay type: in vivo, Panicum dichotomiflorum
Outline: as §1

[22] = test system: DATST; experiment: Pre-emergence herbicidal activity on DATST (jimsonweed); assay type: in vivo, Datura stramonium
Outline: as §1

[23] = test system: soybeans; experiment: Field trials, crop selectivity in soybeans; assay type: in vivo; details: pre-emergence rates giving acceptable weed control
[24] = test system: sorghum; experiment: Field trials, crop selectivity in sorghum; assay type: in vivo; details: pre-emergence rates giving acceptable weed control
[25] = test system: CONAR; experiment: Pre-emergence herbicidal activity on CONAR (field bindweed); assay type: in vivo, Convolvulus arvensis
Outline: as §1

[26] = pre-emergence application, Example 5a 200 g/ha alone
[27] = racemic mixture vs enantiomers test, rates tested 1000, 650, 300, 200, 100, 65, 30 and 10 g/ha, lowest rate with 80% or greater inhibition

With `C[C@H](CNC(=O)c1cccc(C(F)(F)F)c1)NC(=O)c1cccc(C(F)(F)F)c1` [Example 5a, R—N,N′-(1,2-propanediylbis)-3-(trifluoromethyl)benzamide] the “Percent control DIGSA” value [1, 26] was 82%, the “Pre-emergence activity (GR80) DIGSA” value [1, 27] was 65 g/ha and the “Pre-emergence activity (GR80) SORVU” value [2] was “[empty]”. The “Percent control SETFA” value [3, 26] was 40%, the “Pre-emergence activity (GR80) SETFA” value [3, 27] was “phyto” and the “crop injury, corn (maize)” value [4] was “not injurious”. For the same compound, the “Percent control POROL” value [5, 26] was 100%, the “Pre-emergence activity (GR80) PORAL” value [5, 27] was 30 g/ha and the “crop selectivity, rice” value [6] was “not to be adequately selective”. The “pre-emergence GR80 on monocotyledonous species” value [7] was 711 g/ha, the “Percent control ABUTH” value [8, 26] was 8% and the “Pre-emergence activity (GR80) ABUTH” value [8, 27] was 650 g/ha. For the same compound, the “average pre-emergence GR80 on dicotyledonous species” value [9] was 235 g/ha, the “crop selectivity, cotton” value [10] was “not to be adequately selective” and the “herbicidal activity of the combination compared with expectation” value ([11]; Example 5a 200 g/ha + acetochlor 100 g/ha, at least on ABUTH, DATST, SORHA and PANMI) was “greater than expected herbicidal activity”. The “number of the 14 species showing >85% control” value ([11]; Example 5a 200 g/ha in combination with acetochlor 100 g/ha) was 11, the “number of the 14 species showing >85% control” value ([11]; Example 5a alone at 200 g/ha) was 4 and the “GR80 values relative to those of the racemic mixture” value ([11]; typical over species of Tables 19 and 20) was “about one-half”. For the same compound, the “Percent control CIRAR” value [12, 26] was 35%, the “Pre-emergence activity (GR80) CIRAR” value [12, 27] was 1000 g/ha and the “Percent control SORHA” value [13, 26] was 30%. For the same compound, the “Pre-emergence activity (GR80) SORHA” value [13, 27] was “phyto”, the “Percent control BRAPP” value [14, 26] was 15% and the “Pre-emergence activity (GR80) BRAPP” value [14, 27] was “phyto”. The “Percent control CHEAL” value [15, 26] was 100%, the “Pre-emergence activity (GR80) CHEAL” value [15, 27] was 65 g/ha and the “Percent control AMARE” value [16, 26] was 100%. For the same compound, the “Pre-emergence activity (GR80) AMARE” value [16, 27] was 30 g/ha, the “Percent control PANMI” value [17, 26] was 20% and the “Pre-emergence activity (GR80) PANMI” value [17, 27] was 300 g/ha. The “weed control in field trials” value [18] was “acceptable control”, the “Pre-emergence activity (GR80) ECHCG” value [19] was “phyto” and the “Percent control SOLNI” value [20, 26] was 100%. The “Pre-emergence activity (GR80) SOLNI” value [20, 27] was 200 g/ha, the “Percent control PANDI” value [21, 26] was 55% and the “Pre-emergence activity (GR80) PANDI” value [21, 27] was 200 g/ha. The “Percent control DATST” value [22, 26] was 41%, the “Pre-emergence activity (GR80) DATST” value [22, 27] was 650 g/ha and the “crop injury, soybeans” value [23] was “not injurious”. For the same compound, the “crop injury, sorghum” value [24] was “not injurious”, the “Percent control CONAR” value [25, 26] was 22% and the “Pre-emergence activity (GR80) CONAR” value [25, 27] was “phyto”.
